From patent publication US10112899B2 (ViiV HEALTHCARE UK LIMITED, priority 2014, dated 2018)

tested on: HIV in the HTLV-1 transformed cell line MT-4; test: organism not typed; format: cell-based; conditions: MT4, 96 h, MT-4 cells; luciferase/cell titer glo readout after 96 hours; 10 point dose response

`Cc1ccc(-c2c(C)c3c(c(C)c2[C@H](OC(C)(C)C)C(=O)O)CN(Cc2cccc(C(=O)N4CCCCC4)c2)C3)cc1` [Example 44, (2S)-2-(tert-butoxy)-2-[4,7-dimethyl-6-(4-methylphenyl)-2-{[3-(piperidine-1-carbonyl)phenyl]methyl}-2,3-dihydro-1H-isoindol-5-yl]acetic acid] and `Cc1ccc(-c2c(C)c3c(c(C)c2[C@H](OC(C)(C)C)C(=O)O)CN(Cc2cccc(N4CCOCC4)c2)C3)cc1` [Example 46, (2S)-2-(tert-butoxy)-2-[4,7-dimethyl-6-(4-methylphenyl)-2-{[3-(morpholin-4-yl)phenyl]methyl}-2,3-dihydro-1H-isoindol-5-yl]acetic acid] are within 1.5-fold of each other in IC50: 3350 nM for the first, 4080 nM for the second.

`Cc1ccc(-c2c(C)c3c(c(C)c2[C@H](OC(C)(C)C)C(=O)O)CN(Cc2cccc(Cl)c2)C3)cc1` [Example 45, (2S)-2-(tert-butoxy)-2-{2-[(3-chlorophenyl)methyl]-4,7-dimethyl-6-(4-methylphenyl)-2,3-dihydro-1H-isoindol-5-yl}acetic acid] and `Cc1ccc(-c2c(C)c3c(c(C)c2[C@H](OC(C)(C)C)C(=O)O)CN(Cc2ccc(F)c(F)c2)C3)cc1` [Example 53, (2S)-2-(tert-butoxy)-2-{2-[(3,4-difluorophenyl)methyl]-4,7-dimethyl-6-(4-methylphenyl)-2,3-dihydro-1H-isoindol-5-yl}acetic acid] are within 1.5-fold of each other in IC50: 43 nM for the first, 51 nM for the second.

Going from `Cc1ccc(-c2c(C)c3c(c(C)c2[C@H](OC(C)(C)C)C(=O)O)CN(Cc2cccc(F)c2C)C3)cc1` [Example 47, (2S)-2-(tert-butoxy)-2-{2-[(3-fluoro-2-methylphenyl)methyl]-4,7-dimethyl-6-(4-methylphenyl)-2,3-dihydro-1H-isoindol-5-yl}acetic acid] to `Cc1ccc(-c2c(C)c3c(c(C)c2[C@H](OC(C)(C)C)C(=O)O)CN(S(=O)(=O)c2ccc(F)cc2)C3)cc1` [Example 49, (2S)-2-(tert-butoxy)-2-[2-(4-fluorobenzenesulfonyl)-4,7-dimethyl-6-(4-methylphenyl)-2,3-dihydro-1H-isoindol-5-yl]acetic acid], the IC50 rises from 44 nM to 100 nM (2.3-fold).

Compared with `COC(=O)N1Cc2c(C)c(-c3ccc(C)cc3)c([C@H](OC(C)(C)C)C(=O)O)c(C)c2C1` [Example 48, (2S)-2-(tert-butoxy)-2-[2-(methoxycarbonyl)-4,7-dimethyl-6-(4-methylphenyl)-2,3-dihydro-1H-isoindol-5-yl]acetic acid], `Cc1ccc(-c2c(C)c3c(c(C)c2[C@H](OC(C)(C)C)C(=O)O)CN(C(=O)N(C)C)C3)cc1` [Example 59, (2S)-2-(tert-butoxy)-2-[2-(dimethylcarbamoyl)-4,7-dimethyl-6-(4-methylphenyl)-2,3-dihydro-1H-isoindol-5-yl]acetic acid] is 2.1-fold lower in IC50: 573 nM for the first, 279 nM for the second. The second is the more potent here.

Compared with `Cc1ccc(-c2c(C)c3c(c(C)c2[C@H](OC(C)(C)C)C(=O)O)CN(S(=O)(=O)N2CCCCC2)C3)cc1` [Example 50, (2S)-2-(tert-butoxy)-2-[4,7-dimethyl-6-(4-methylphenyl)-2-(piperidine-1-sulfonyl)-2,3-dihydro-1H-isoindol-5-yl]acetic acid], `Cc1ccc(-c2c(C)c3c(c(C)c2[C@H](OC(C)(C)C)C(=O)O)CN(S(=O)(=O)N2CCOCC2)C3)cc1` [Example 52, (2S)-2-(tert-butoxy)-2-[4,7-dimethyl-6-(4-methylphenyl)-2-(morpholine-4-sulfonyl)-2,3-dihydro-1H-isoindol-5-yl]acetic acid] is 1.6-fold lower in IC50: 29 nM for the first, 18 nM for the second. The second is the more potent here.

`Cc1ccc(-c2c(C)c3c(c(C)c2[C@H](OC(C)(C)C)C(=O)O)CN(S(=O)(=O)NC(C)C)C3)cc1` [Example 51, (2S)-2-(tert-butoxy)-2-[4,7-dimethyl-6-(4-methylphenyl)-2-[(propan-2-yl)sulfamoyl]-2,3-dihydro-1H-isoindol-5-yl]acetic acid] and `COCCN(C)C(=O)N1Cc2c(C)c(-c3ccc(C)cc3)c([C@H](OC(C)(C)C)C(=O)O)c(C)c2C1` [Example 62, (2S)-2-(tert-butoxy)-2-{2-[(2-methoxyethyl)(methyl)carbamoyl]-4,7-dimethyl-6-(4-methylphenyl)-2,3-dihydro-1H-isoindol-5-yl}acetic acid] are the same in IC50: 44 nM for the first, 44 nM for the second.

Going from `Cc1ccc(-c2c(C)c3c(c(C)c2[C@H](OC(C)(C)C)C(=O)O)CN(C(=O)NC2CCC(C)CC2)C3)cc1` (stereo partly drawn) [Example 54, (2S)-2-(tert-butoxy)-2-[4,7-dimethyl-6-(4-methylphenyl)-2-{[(1r,4r)-4-methylcyclohexyl]carbamoyl}-2,3-dihydro-1H-isoindol-5-yl]acetic acid] to `Cc1ccc(-c2c(C)c3c(c(C)c2[C@H](OC(C)(C)C)C(=O)O)CN(C(=O)NC2CCC2)C3)cc1` [Example 70, (2S)-2-(tert-butoxy)-2-[2-(cyclobutylcarbamoy)-4,7-dimethyl-6-(4-methylphenyl)-2,3-dihydro-1H-isoindol-5-yl]acetic acid], the IC50 falls from 288 nM to 34 nM (8.5-fold). The second is the more potent here.

`Cc1ccc(-c2c(C)c3c(c(C)c2[C@H](OC(C)(C)C)C(=O)O)CN(C(=O)N2CCOCC2)C3)cc1` [Example 57, (2S)-2-(tert-butoxy)-2-[4,7-dimethyl-6-(4-methylphenyl)-2-(morpholine-4-carbonyl)-2,3-dihydro-1H-isoindol-5-yl]acetic acid] and `Cc1ccc(-c2c(C)c3c(c(C)c2[C@H](OC(C)(C)C)C(=O)O)CN(C(=O)N2CCC2)C3)cc1` [Example 61, (2S)-2-[2-(azetidine-1-carbonyl)-4,7-dimethyl-6-(4-methylphenyl)-2,3-dihydro-1H-isoindol-5-yl]-2-(tert-butoxy)acetic acid] are within 1.5-fold of each other in IC50: 44 nM for the first, 38 nM for the second.

Compared with `Cc1ccc(-c2c(C)c3c(c(C)c2[C@H](OC(C)(C)C)C(=O)O)CN(C(=O)NCC2CCCCC2)C3)cc1` [Example 58, (2S)-2-(tert-butoxy)-2-{2-[(cyclohexylmethyl)carbamoyl]-4,7-dimethyl-6-(4-methylphenyl)-2,3-dihydro-1H-isoindol-5-yl}acetic acid], `Cc1ccc(-c2c(C)c3c(c(C)c2[C@H](OC(C)(C)C)C(=O)O)CN(C(=O)N(C)C2CCCCC2)C3)cc1` [Example 67, (2S)-2-(tert-butoxy)-2-{2-[cyclohexyl(methyl)carbamoyl]-4,7-dimethyl-6-(4-methylphenyl)-2,3-dihydro-1H-isoindol-5-yl}acetic acid] is 6.4-fold lower in IC50: 350 nM for the first, 55 nM for the second.

`Cc1ccc(-c2c(C)c3c(c(C)c2[C@H](OC(C)(C)C)C(=O)O)CN(C(=O)N2CCCCCC2)C3)cc1` [Example 60, (2S)-2-[2-(azepane-1-carbonyl)-4,7-dimethyl-6-(4-methylphenyl)-2,3-dihydro-1H-isoindol-5-yl]-2-(tert-butoxy)acetic acid] and `Cc1ccc(-c2c(C)c3c(c(C)c2[C@H](OC(C)(C)C)C(=O)O)CN(C(=O)N2CCCCCCC2)C3)cc1` [Example 65, (2S)-2-[2-(azocane-1-carbonyl)-4,7-dimethyl-6-(4-methylphenyl)-2,3-dihydro-1H-isoindol-5-yl]-2-(tert-butoxy)acetic acid] are within 1.5-fold of each other in IC50: 14 nM for the first, 10 nM for the second.

`Cc1ccc(-c2c(C)c3c(c(C)c2[C@H](OC(C)(C)C)C(=O)O)CN(C(=O)NC(C)(C)C)C3)cc1` [Example 63] and `Cc1ccc(-c2c(C)c3c(c(C)c2[C@H](OC(C)(C)C)C(=O)O)CN(C(=O)NCC(C)(C)C)C3)cc1` [Example 74, (2S)-2-(tert-butoxy)-2-{2-[(2,2-dimethylpropyl)carbamoyl]-4,7-dimethyl-6-(4-methylphenyl)-2,3-dihydro-1H-isoindol-5-yl}acetic acid] are within 1.5-fold of each other in IC50: 15 nM for the first, 21 nM for the second.

First: Cc1ccc(-c2c(C)c3c(c(C)c2[C@H](OC(C)(C)C)C(=O)O)CN(C(=O)N2CCS(=O)(=O)CC2)C3)cc1 [Example 64, (2S)-2-(tert-butoxy)-2-[2-(1,1-dioxo-1λ^6,4-thiomorpholine-4-carbonyl)-4,7-dimethyl-6-(4-methylphenyl)-2,3-dihydro-1H-isoindol-5-yl]acetic acid]
Second: Cc1ccc(-c2c(C)c3c(c(C)c2[C@H](OC(C)(C)C)C(=O)O)CN(C(=O)N2CCN(C)CC2)C3)cc1 [Example 71, (2S)-2-(tert-butoxy)-2-[4,7-dimethyl-6-(4-methylphenyl)-2-(4-methylpiperazine-1-carbonyl)-2,3-dihydro-1H-isoindol-5-yl]acetic acid]
The IC50 of the first is 2.6-fold lower: 106 nM for the first, 276 nM for the second.

`Cc1ccc(-c2c(C)c3c(c(C)c2[C@H](OC(C)(C)C)C(=O)O)CN(C(=O)N2CCCC(F)(F)C2)C3)cc1` [Example 66, (2S)-2-(tert-butoxy)-2-[2-(3,3-difluoropiperidine-1-carbonyl)-4,7-dimethyl-6-(4-methylphenyl)-2,3-dihydro-1H-isoindol-5-yl]acetic acid] and `Cc1ccc(-c2c(C)c3c(c(C)c2[C@H](OC(C)(C)C)C(=O)O)CN(C(=O)N2CCC(F)(F)C2)C3)cc1` [Example 68, (2S)-2-(tert-butoxy)-2-[2-(3,3-difluoropyrrolidine-1-carbonyl)-4,7-dimethyl-6-(4-methylphenyl)-2,3-dihydro-1H-isoindol-5-yl]acetic acid] are within 1.5-fold of each other in IC50: 6 nM for the first, 8 nM for the second.

`Cc1ccc(-c2c(C)c3c(c(C)c2[C@H](OC(C)(C)C)C(=O)O)CN(C(=O)N2CCCC[C@H]2C)C3)cc1` [Example 69, (2S)-2-(tert-butoxy)-2-[4,7-dimethyl-6-(4-methylphenyl)-2-[(2R)-2-methylpiperidine-1-carbonyl]-2,3-dihydro-1H-isoindol-5-yl]acetic acid] and `Cc1ccc(-c2c(C)c3c(c(C)c2[C@H](OC(C)(C)C)C(=O)O)CN(C(=O)N2CCOC[C@H]2C)C3)cc1` [Example 72, (2S)-2-(tert-butoxy)-2-{4,7-dimethyl-2-[(3R)-3-methylmorpholine-4-carbonyl]-6-(4-methylphenyl)-2,3-dihydro-1H-isoindol-5-yl}acetic acid] are within 1.5-fold of each other in IC50: 14 nM for the first, 16 nM for the second.

`Cc1ccc(-c2c(C)c3c(c(C)c2[C@H](OC(C)(C)C)C(=O)O)CN(C(=O)N2C[C@H](C)O[C@@H](C)C2)C3)cc1` [Example 73, (2S)-2-(tert-butoxy)-2-{2-[(2S,6S)-2,6-dimethylmorpholine-4-carbonyl]-4,7-dimethyl-6-(4-methylphenyl)-2,3-dihydro-1H-isoindol-5-yl}acetic acid] was tested, and the IC50 was 26 nM.
